Source: patent US10654873B2, “Cytotoxic agents and conjugates thereof” (priority 2016, dated 2020)
“Also recorded” adds a separate entry of the source. Where two headings read alike, the source gives them in different places.

Experiments:
[1] = tested on: HER2-positive tumour cell line, SK-BR-3; assay: In vitro potency / cell viability assay (CellTiter-Glo) in SK-BR-3 cell line; assay type: cell-based
From the text: (§1) Loss of tumour cell viability following treatment with cytotoxic drugs or ADCs in vitro can be measured by growing cell lines in the presence of increasing concentrations of drugs or ADCs and quantifying the loss of proliferation or metabolic activity using CellTiter-Glo® Luminescence reagent (Promega). The protocol describes cell seeding, drug treatment and determination of the cell viability in reference to untreated cells based on ATP synthesis, which is directly related to the number of cells present in the well.
HER2-positive tumour cell line, SK-BR-3 (ATCC-HTB-30), was grown in McCoy's 5A medium complemented with 10% foetal bovine serum, 100 u/mL Penicillin and 100 μg/mL Streptomycin. SK-BR-3 cells were detached, seeded at 5,000 cells per well (100 μL/well) into poly-D-lysine coated clear bottom white-walled 96-well plates and incubated for 24 h at 37° C. and 5% CO2.
Serial dilutions of compounds were prepared in triplicate using the relevant cell culture medium as diluent. The CD30-positive Karpas-299 cells were treated with 50 μL compounds at 2× assay concentration. Medium from the SK-BR-3 assay plates was removed and replaced by 100 μL serially diluted compounds at 1× assay concentration. The assay concentrations are specified in Table 1. The cells were then incubated with the compounds (total volume 100 μL/well), at 37° C. and 5% CO2 for a further 96 h.
(§2) At the end of the incubation, cell viability was measured using the CellTiter-Glo® Luminescence reagent, as described by the manufacturer's instructions. The data was subsequently analysed using a four parameter non-linear regression model.
(§3) Viability was expressed as % of untreated cells and calculated using the following formula: […]
The % viability (Y-axis) was plotted against the logarithm of drug concentration in nM (X-axis) to extrapolate the IC50 values for all compounds.

[2] = Stability in mouse serum (LC-Orbitrap-MS); assay type: in vitro ADME; settings: 37° C., 4 and 7 days, 90% (v/v) mouse serum, 0.05 mg/mL
Method: Solutions of compounds 26 and 78 (comparator) in a 50/50 v/v mixture of DMF:buffer solution (20 mM sodium phosphate, 150 mM sodium chloride, 20 mM EDTA, pH 7.5) (0.5 mg/mL) were diluted to 0.05 mg/mL in mouse serum (90% (v/v) serum content). An aliquot of each sample corresponding to the ‘0’ time point was immediately frozen at −80° C., while the remaining sample was incubated at 37° C. for 7 d. Additional aliquots were taken after 4 and 7 d and frozen at −80° C. Prior to analysis, the samples were removed from the freezer and maytansinoid-related species were extracted from the serum by protein precipitation. Protein precipitation was performed by adding acetonitrile (75% v/v) to each time-point aliquot, and after gentle mixing, allowing the mixtures to stand at 4° C. for 2 h. The precipitated protein was then separated by centrifugation (1400×g, 30 min, 4° C.) and the supernatant containing the extracted maytansinoid-related species were analysed by LC-Orbitrap-MS.
The samples were further diluted with water resulting in a 15% v/v acetonitrile solution. An aliquot (2.5 μL) of each solution was then injected onto a nano-liquid chromatography MS system, consisting of a Dionex ULTIMATE 3000 UPLC fitted with a PepMap C18 column (0.075×150 mm), coupled online to an Orbitrap-MS instrument operated in ES positive mode at 75K resolution using lock mass. […]

[3] = tested on: CD30-positive human T cell lymphoma cell line Karpas-299; assay: In vitro potency / cell viability assay (CellTiter-Glo) in Karpas-299 cell line; assay type: cell-based; settings: 96 h incubation
From the text: as §1
The CD30-positive human T cell lymphoma cell line Karpas-299 was obtained from Dr Abraham Karpas at the University of Cambridge. The cells were grown in RPMI medium supplemented with 10% foetal bovine serum, 100 U/mL Penicillin and 100 μg/mL Streptomycin. […]
as §2, §3
Loss of tumour cell viability following treatment with ADCs incorporating maytansinoids of the invention was tested by growing cell lines in the presence of increasing concentrations of ADCs and quantifying the loss of proliferation or metabolic activity as described in Example 2. […]

[4] = Stability of atropisomers on heating in DMSO (HPLC); assay type: physicochemical; settings: 50° C., 1 h
Method: The stability of the atropisomers was investigated by heating solutions of compounds 80 and 81 in DMSO at 50° C. for 1 h.

[5] = Homo sapiens, SK-BR-3, free compounds, as described in Example 2, read-out: Average IC50 (nM) SK-BR-3 Cell line
[6] = Homo sapiens, SK-BR-3, 96 h, 96 h incubation, CellTiter-Glo, read-out: IC50 (nM) SKBR3 Cell line
[7] = free compounds, as described in Example 2, read-out: Average IC50 (nM) SK-BR-3 Cell line

Row | SMILES | IC50 [1, 5] [nM] | other results
1 | COc1cc2cc(c1-c1ccc(NC(=O)CCC(C)S)cc1)N(C)C(=O)C[C@H](OC(=O)C(C)C)[C@]1(C)O[C@H]1[C@H](C)[C@@H]1C[C@@](O)(NC(=O)O1)[C@H](OC)/C=C/C=C(\C)C2 (stereo partly drawn) [Compound 6] | 2.7 | –
2 | COc1cc2cc(c1-c1ccc(NC(=O)CCS)cc1)N(C)C(=O)C[C@H](OC(=O)C(C)C)[C@]1(C)O[C@H]1[C@H](C)[C@@H]1C[C@@](O)(NC(=O)O1)[C@H](OC)/C=C/C=C(\C)C2 [Compound 15] | 5.4 | –
3 | COc1cc2cc(c1-c1ccc(NC(=O)CCC(C)SSC(C)CCC(=O)O)cc1)N(C)C(=O)C[C@H](OC(=O)C(C)C)[C@]1(C)O[C@H]1[C@H](C)[C@@H]1C[C@@](O)(NC(=O)O1)[C@H](OC)/C=C/C=C(\C)C2 (stereo partly drawn) [Compound 26] | – | degradation in mouse serum [2]: no comparable degradation products were observed; also recorded: no degradation products equivalent to A and B
4 | COc1cc2cc(c1-c1ccc(NC(=O)CCC(C)(C)S)cc1)N(C)C(=O)C[C@H](OC(=O)C(C)C)[C@]1(C)O[C@H]1[C@H](C)[C@@H]1C[C@@](O)(NC(=O)O1)[C@H](OC)/C=C/C=C(\C)C2 [Compound 9] | 7.4 | –
5 | COc1cc2cc(c1-c1ccc(NC(=O)CCCS)cc1)N(C)C(=O)C[C@H](OC(=O)C(C)C)[C@]1(C)O[C@H]1[C@H](C)[C@@H]1C[C@@](O)(NC(=O)O1)[C@H](OC)/C=C/C=C(\C)C2 [Compound 12] | 4.2 | –
6 | COc1cc2cc(c1-c1ccc(N)c(Cl)c1)N(C)C(=O)C[C@H](OC(=O)C(C)C)[C@]1(C)O[C@H]1[C@H](C)[C@@H]1C[C@@](O)(NC(=O)O1)[C@H](OC)/C=C/C=C(\C)C2 [Compound 5] | 1.2 | –
7 | COc1cc2cc(c1-c1ccc(NC(=O)CCS)c(Cl)c1)N(C)C(=O)C[C@H](OC(=O)C(C)C)[C@]1(C)O[C@H]1[C@H](C)[C@@H]1C[C@@](O)(NC(=O)O1)[C@H](OC)/C=C/C=C(\C)C2 [Compound 23] | 4.2 | –
8 | COc1cc2cc(c1-c1ccc(NC(=O)CCC(C)S)c(Cl)c1)N(C)C(=O)C[C@H](OC(=O)C(C)C)[C@]1(C)O[C@H]1[C@H](C)[C@@H]1C[C@@](O)(NC(=O)O1)[C@H](OC)/C=C/C=C(\C)C2 (stereo partly drawn) [Compound 18] | 0.9 | –
9 | COc1cc2cc(c1/C=C/CN)N(C)C(=O)C[C@H](OC(=O)C(C)C)[C@]1(C)O[C@H]1[C@H](C)[C@@H]1C[C@@](O)(NC(=O)O1)[C@H](OC)/C=C/C=C(\C)C2 [Compound 31, reference compound] | 33.4 | –
10 | COc1cc2cc(c1-c1ccc(NC(=O)OC(C)(C)C)cc1)N(C)C(=O)C[C@H](OC(=O)C(C)C)[C@]1(C)O[C@H]1[C@H](C)[C@@H]1C[C@@](O)(NC(=O)O1)[C@H](OC)/C=C/C=C(\C)C2 [Compound 3, 4-(N-Bocamino)phenyl-AP3] | – | IC50 [1, 6]: 4 nM; IC50 [3]: 0.7 nM
11 | COc1cc2cc(c1-c1ccc(N)cc1)N(C)C(=O)C[C@H](OC(=O)C(C)C)[C@]1(C)O[C@H]1[C@H](C)[C@@H]1C[C@@](O)(NC(=O)O1)[C@H](OC)/C=C/C=C(\C)C2 [Compound 4] | 1.2 | –
12 | COc1cc2cc(c1-c1ccc(NC(=O)CCC(C)(C)S)c(Cl)c1)N(C)C(=O)C[C@H](OC(=O)C(C)C)[C@]1(C)O[C@H]1[C@H](C)[C@@H]1C[C@@](O)(NC(=O)O1)[C@H](OC)/C=C/C=C(\C)C2 [Compound 21] | 1.7 | –
13 | COc1cc2cc(c1-c1ccc(N)cc1Cl)N(C)C(=O)C[C@H](OC(=O)C(C)C)[C@]1(C)O[C@H]1[C@H](C)[C@@H]1C[C@@](O)(NC(=O)O1)[C@H](OC)/C=C/C=C(\C)C2 (single isomer, unassigned) [Compound 80] | – | IC50 [1, 7]: 3.6 nM; stability of atropisomers (HPLC chromatograms) [4]: no changes were observed
14 | COc1cc2cc(c1Cl)N(C)C(=O)C[C@H](OC(=O)[C@H](C)N(C)C(=O)CCC(C)SSC(C)CCC(=O)O)[C@]1(C)O[C@H]1[C@H](C)[C@@H]1C[C@@](O)(NC(=O)O1)[C@H](OC)/C=C/C=C(\C)C2 (stereo partly drawn) [Compound 78, reference compound] | – | degradation in mouse serum [2]: significant degradation
15 | COc1cc2cc(c1-c1ccc(N)cc1Cl)N(C)C(=O)C[C@H](OC(=O)C(C)C)[C@]1(C)O[C@H]1[C@H](C)[C@@H]1C[C@@](O)(NC(=O)O1)[C@H](OC)/C=C/C=C(\C)C2 (single isomer, unassigned) [Compound 81] | – | IC50 [1, 7]: 0.9 nM; stability of atropisomers (HPLC chromatograms) [4]: no changes were observed
16 | COc1cc2cc(c1-c1ccc(N)cc1)N(C)C(=O)C[C@H](OC(=O)[C@H](C)N(C)C(C)=O)[C@]1(C)O[C@H]1[C@H](C)[C@@H]1C[C@@](O)(NC(=O)O1)[C@H](OC)/C=C/C=C(\C)C2 [Compound 32] | 5.5 | –
17 | COc1cc2cc(c1Cl)N(C)C(=O)C[C@H](OC(=O)[C@H](C)N(C)C(=O)CCS)[C@]1(C)O[C@H]1[C@H](C)C1C[C@@](O)(NC(=O)O1)[C@H](OC)/C=C/C=C(\C)C2 [DM1, reference compound] | – | IC50 [1, 6]: 10 nM; IC50 [3]: 9 nM
